Assays:
[1] = test system: buckhorn plantain (Plantago lanceolata, PLALA); assay: Field trial, post-emergence foliar application, weed control of buckhorn plantain; type: in vivo; conditions: applied alone
Source text: The (a) aminocyclopyrachlor or an agriculturally acceptable salt or ester thereof is mixed with or applied in combination with (b) clopyralid or an agriculturally acceptable salt or ester thereof in an amount sufficient to induce a synergistic herbicidal effect. […] As described in the Herbicide Handbook of the Weed Science Society of America, Ninth Edition, 2007, p. 429, “'synergism' [is] an interaction of two or more factors such that the effect when combined is greater than the predicted effect based on the response to each factor applied separately.” Synergistic in the herbicide context can mean that the use of (a) and (b) as defined above results in an increased weed control effect compared to the weed control effects that are possible with the use of (a) or (b) alone. In some embodiments, the damage or injury to the undesired vegetation caused by the compositions and methods disclosed herein is evaluated using a scale from 0% to 100%, when compared with the untreated control vegetation, wherein 0% indicates no damage to the undesired vegetation and 100% indicates complete destruction of the undesired vegetation. […] 22 (1967) Field trials were conducted with applications made to established grassland with naturally occurring weed populations. The target plants were treated with postemergence foliar applications when they reached three to five inches tall. All treatments were applied using a randomized complete block trial design, with 4 replications per treatment. Treatments consisted of aminocyclopyrachlor in acid form and clopyralid-olamine, each in water and applied alone or in combination. Spray solutions were prepared using an appropriate amount of dilution to form a 2 L aqueous spray solution with active ingredients in single and two way combinations. Formulated compounds were applied to the plant material with a backpack sprayer equipped with 8003 nozzles calibrated to deliver 187 L/ha at a spray height of 18 inches (43 centimeters (cm)) above average plant canopy. The treated plants were buckhorn plantain (Plantago lanceolata, PLALA) and […] clover (Medicago arabica, MEDAB). The treated plots and control plots were rated blind at various intervals after application. Ratings were based on a scale of 0-100%, as discussed above, wherein 0% indicates no damage to the undesired vegetation and 100% indicates complete destruction of the undesired vegetation Colby's equation was used to determine the herbicidal effects expected from the mixtures, as described above. The results were measured at 7 days and 27 days after the first application of the compositions. […] The herbicide tank mix combinations tested, application rates and ratios employed, plant species tested, and results are given below.

[2] = test system: calvary clover (Medicago arabica, MEDAB); assay: Field trial, post-emergence foliar application, weed control of calvary clover; type: in vivo; conditions: 27 days, applied alone
Source text: The (a) aminocyclopyrachlor or an agriculturally acceptable salt or ester thereof is mixed with or applied in combination with (b) clopyralid or an agriculturally acceptable salt or ester thereof in an amount sufficient to induce a synergistic herbicidal effect. […] As described in the Herbicide Handbook of the Weed Science Society of America, Ninth Edition, 2007, p. 429, “'synergism' [is] an interaction of two or more factors such that the effect when combined is greater than the predicted effect based on the response to each factor applied separately.” Synergistic in the herbicide context can mean that the use of (a) and (b) as defined above results in an increased weed control effect compared to the weed control effects that are possible with the use of (a) or (b) alone. In some embodiments, the damage or injury to the undesired vegetation caused by the compositions and methods disclosed herein is evaluated using a scale from 0% to 100%, when compared with the untreated control vegetation, wherein 0% indicates no damage to the undesired vegetation and 100% indicates complete destruction of the undesired vegetation. […] 22 (1967) Field trials were conducted with applications made to established grassland with naturally occurring weed populations. The target plants were treated with postemergence foliar applications when they reached three to five inches tall. All treatments were applied using a randomized complete block trial design, with 4 replications per treatment. Treatments consisted of aminocyclopyrachlor in acid form and clopyralid-olamine, each in water and applied alone or in combination. Spray solutions were prepared using an appropriate amount of dilution to form a 2 L aqueous spray solution with active ingredients in single and two way combinations. Formulated compounds were applied to the plant material with a backpack sprayer equipped with 8003 nozzles calibrated to deliver 187 L/ha at a spray height of 18 inches (43 centimeters (cm)) above average plant canopy. […] The results were measured at 7 days and 27 days after the first application of the compositions. […]

SMILES	Mean % weed control ([1]; 7 days, 18 g ae/ha) [%]	Mean % weed control ([1]; 27 days, 18 g ae/ha) [%]	Mean % weed control ([1]; 27 days, 35 g ae/ha) [%]	Mean % weed control ([2]; 18 g ae/ha) [%]	Mean % weed control ([1]; 7 days, 35 g ae/ha) [%]	Mean % weed control ([1]; 27 days, 70 g ae/ha) [%]	Mean % weed control ([2]; 35 g ae/ha) [%]	Mean % weed control ([2]; 70 g ae/ha) [%]
Nc1nc(C2CC2)nc(C(=O)O)c1Cl [Aminocyclopyrachlor, 6-amino-5-chloro-2-cyclopropylpyrimidine-4-carboxylic acid]	18.75	22.5	35	27.5	–	–	–	–
O=C(O)c1nc(Cl)ccc1Cl [Clopyralid-olamine, clopyralid-olamine]	–	–	–	–	18	28	13	30

Reference: US9320274B2, “Synergistic weed control from applications of aminocyclopyrachlor and clopyralid” (Dow AgroSciences LLC, priority 2012, dated 2016)
